The source of these data is article PMC5814047, “Peptidic inhibitors of insulin-degrading enzyme with potential for dermatological applications discovered via phage display” (PLoS ONE, 2018).

Where “and” joins values, the source holds several entries; their conditions need not be identical. Identical values can stand only once. Ends that are not written are not given here.

Test [1] addresses T1, IDE (Homo sapiens, UniProt P14735).
T1 construct: made in house; host or cells: bacteria
T1 sequence (P14735 1-1019): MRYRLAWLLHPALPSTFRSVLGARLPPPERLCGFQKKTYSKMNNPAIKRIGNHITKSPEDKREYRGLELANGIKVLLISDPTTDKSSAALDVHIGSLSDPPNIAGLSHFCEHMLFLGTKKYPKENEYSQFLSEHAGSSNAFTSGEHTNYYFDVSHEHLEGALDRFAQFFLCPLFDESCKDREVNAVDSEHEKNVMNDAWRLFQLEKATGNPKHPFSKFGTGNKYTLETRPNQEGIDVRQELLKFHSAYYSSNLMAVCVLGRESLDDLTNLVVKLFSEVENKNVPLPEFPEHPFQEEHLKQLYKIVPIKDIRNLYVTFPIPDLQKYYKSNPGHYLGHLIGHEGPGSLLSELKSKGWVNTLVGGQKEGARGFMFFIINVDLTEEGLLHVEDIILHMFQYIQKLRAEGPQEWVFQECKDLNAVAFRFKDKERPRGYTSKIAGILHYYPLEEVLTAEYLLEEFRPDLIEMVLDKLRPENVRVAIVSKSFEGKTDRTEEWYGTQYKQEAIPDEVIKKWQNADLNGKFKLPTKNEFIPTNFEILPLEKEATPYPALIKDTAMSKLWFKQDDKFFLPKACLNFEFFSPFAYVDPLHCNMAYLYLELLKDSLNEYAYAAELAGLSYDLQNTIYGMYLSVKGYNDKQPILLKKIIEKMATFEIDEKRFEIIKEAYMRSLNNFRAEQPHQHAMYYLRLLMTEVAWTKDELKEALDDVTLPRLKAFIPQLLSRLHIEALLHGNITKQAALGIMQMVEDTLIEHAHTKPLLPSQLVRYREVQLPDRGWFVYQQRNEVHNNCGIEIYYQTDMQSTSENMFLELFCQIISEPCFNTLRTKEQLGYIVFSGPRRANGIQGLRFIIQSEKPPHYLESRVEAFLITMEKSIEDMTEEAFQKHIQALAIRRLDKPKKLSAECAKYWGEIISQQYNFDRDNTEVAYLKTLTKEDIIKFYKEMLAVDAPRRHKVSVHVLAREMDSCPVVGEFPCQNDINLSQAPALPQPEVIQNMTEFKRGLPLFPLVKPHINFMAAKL
In words: biochemical. As to conditions: for IC50: insulin ELISA assay, dose-response. From the text: The six selected peptide sequences (C7C-1, C7C-2, 12–1, 12–2, 12–3 and 12–4) were synthesized, together with a variety of modifications, yielding a total of 25 peptides (Table 1). For the 12-mer peptides, we synthesized variants of the parent peptides truncated at one or both termini, to test whether the entire sequence was necessary or not, in the hope that shorter, and thus less expensive, sequences might be effective. Other modifications included N-terminal acetylation and C-terminal amidation, included to mimic the charge state of the peptides when incorporated in the phage coat protein (Table 1). To assess the extent to which these peptide sequences inhibit IDE, we quantified their potency in protease activity assays using recombinant human IDE and two different substrates: FRET1, a fluorogenic peptide, and recombinant human insulin.
(§1) IDE activity was quantified by monitoring the degradation of Mca-[…](Dnp) (FRET1, 5 μM), fluoresceinated and biotinylated amyloid ß-protein (FAßB; 500 nM) or recombinant human insulin (50 nM) in PBS supplemented with 0.05% BSA. FRET1 degradation was measured by changes in fluorescence (λex = 340 nm, λem = 420 nm); FAßB degradation was monitored by fluorescence polarization (λex = 488 nm, λem = 525 nm), as described; and insulin degradation was quantified by ELISA. In vitro activity assays incorporated recombinant human IDE (1 nM) purified from bacteria. For quantitation of insulin degradation in primary murine skin fibroblasts, cells (1 x 10^5/well) were plated in 96-well plates and maintained in DMEM supplemented with 10% fetal bovine serum (FBS), 2mM glutamine, penicillin and streptomycin. After addition of insulin (10 nM or 100 nM), samples of conditioned medium were removed daily and quickly frozen, then insulin levels were quantified in parallel by ELISA according to manufacturer’s recommendations (Crystal Chem, Downers Grove, IL, USA). Assessment of the activity of P12-3A against a variety of matrix-metalloproteases was conducted using the Matrix Metalloproteinase (MMP) Inhibitor Profiling Kit, Fluorometric RED (Enzo Life Sciences, Inc., Farmingdale, NY, USA) according to manufacturer’s recommendations using the broad-spectrum MMP inhibitor, NNGH, as a positive control.

The target in test [2] is T1, IDE. Briefly: Vulnerability of peptides to degradation by IDE: 0 vs 4 h pre-incubation, then FRET1 assay. In kind it is biochemical. As to conditions: for IC50: FRET1 assay. The method, then: as §1, with “FRET1 degradation was measured by changes in fluorescence (λex = 340 nm, λem = 420 nm); FAßB degradation was monitored by fluorescence polarization (λex = 488 nm, λem = 525 nm), as described; and insulin degradation was quantified by ELISA.” left out

In test [3] the target is T1, IDE. In words: biochemical. As to conditions: for Percent activity at 500 uM, Mean: N 4; for IC50: dose-response, FRET1. The method, then: The six selected peptide sequences (C7C-1, C7C-2, 12–1, 12–2, 12–3 and 12–4) were synthesized, together with a variety of modifications, yielding a total of 25 peptides (Table 1). […] Other modifications included N-terminal acetylation and C-terminal amidation, included to mimic the charge state of the peptides when incorporated in the phage coat protein (Table 1).
as §1, with “FRET1 degradation was measured by changes in fluorescence (λex = 340 nm, λem = 420 nm); FAßB degradation was monitored by fluorescence polarization (λex = 488 nm, λem = 525 nm), as described; and insulin degradation was quantified by ELISA.” left out

[4] abbreviates: peptide at 10 uM, insulin 100 nM, normalized to DMSO-only and no-enzyme controls.

For LPWCTPHC [P12-3D], the “percent decrease in insulin detected by ELISA, Replicate 1” value in test [1] (setting [4]) was 77.7%. In addition, the “percent decrease in insulin detected by ELISA, Replicate 2” value in test [1] (setting [4]) amounted to 71.2%. Besides, the “percent decrease in insulin detected by ELISA, Replicate 3” value in test [1] (setting [4]) is 96.7%. Besides, the “percent decrease in insulin detected by ELISA, Replicate 4” value in test [1] (setting [4]) stood at 88.5%. For the same substance, in test [1] (peptide at 10 uM, insulin 100 nM, normalized to DMSO-only and no-enzyme controls, N=4), the “percent decrease in insulin detected by ELISA, Mean” value was found to be 83.5%. For the same substance, the “Percent Activity (normalized initial velocity of FRET1 hydrolysis)” value in test [2] (0-hr incubation, Cmpd 0.12207 uM, relative to DMSO-only controls, individual runs) was 96.4522% and 96.759% and 99.5993%; in test [2] (0-hr incubation, Cmpd 0.488281 uM, relative to DMSO-only controls, individual runs) it was 102.379% and 100.264% and 105.198%; in test [2] (0-hr incubation, Cmpd 1.95312 uM, relative to DMSO-only controls, individual runs) it was 104.101% and 99.4736% and 108.303%; in test [2] (0-hr incubation, Cmpd 7.8125 uM, relative to DMSO-only controls, individual runs), 98.6262% and 96.0429% and 106.212%; in test [2] (0-hr incubation, Cmpd 31.25 uM, relative to DMSO-only controls, individual runs) it was 88.0717% and 83.2988% and 94.9104%; in test [2] (0-hr incubation, Cmpd 125 uM, relative to DMSO-only controls, individual runs) it was 50.9238% and 50.5662% and 58.9795%. Besides, the “Percent Activity (normalized initial velocity of FRET1 hydrolysis)” value in test [2] (0-hr incubation, Cmpd 500 uM, relative to DMSO-only controls, individual runs) was 18.0015% and 16.3891% and 26.5742%; in test [2] (4-hr incubation, Cmpd 0.12207 uM, relative to DMSO-only controls, individual runs), 81.980% and 88.388%; in test [2] (4-hr incubation, Cmpd 0.488281 uM, relative to DMSO-only controls, individual runs), 82.055% and 87.340%; in test [2] (4-hr incubation, Cmpd 1.95312 uM, relative to DMSO-only controls, individual runs), 95.585% and 92.840%; in test [2] (4-hr incubation, Cmpd 7.8125 uM, relative to DMSO-only controls, individual runs), 94.853% and 93.557%; in test [2] (4-hr incubation, Cmpd 31.25 uM, relative to DMSO-only controls, individual runs), 102.800% and 95.281%. The “Percent Activity (normalized initial velocity of FRET1 hydrolysis)” value in test [2] (4-hr incubation, Cmpd 125 uM, relative to DMSO-only controls, individual runs) was 90.299% and 99.861%; in test [2] (4-hr incubation, Cmpd 500 uM, relative to DMSO-only controls, individual runs) it was 61.928% and 59.590%. Besides, the “Percent activity at 500 uM, Mean” value turned out to be 3.0% in test [3] (initial test, percent of initial velocity relative to DMSO-only controls) and 48.5% in test [3] (judged as IC50 <100 uM?).
Take VHWDFRQW-NH2 [P12-1B]: the IC50 in test [1] (Replicates 1-3, read-out: IC50s, individual replicates) was 20.6 µM and 9.35 µM and 12.2 µM; in test [1] (N=3, read-out: IC50s, Mean), 14 µM; in test [2] (0-hr incubation, mean of runs, read-out: IC50s, Mean), 61.4 µM; in test [2] (4-hr incubation, individual replicates, read-out: IC50s) it was 200 µM and 193 µM; in test [2] (4-hr incubation, mean of 2 replicates, read-out: IC50s, Mean), 197 µM; in test [3] (individual runs, read-out: IC50s, Run 1-6), 52.2 µM and 51.3 µM and 80.5 µM. For the same substance, the IC50 in test [3] (read-out: IC50s, Mean) is 61.4 µM. For the same substance, the Ki worked out at 7 ± 1.7 µM in test [1] (substrate recombinant human insulin 50 nM, Ki from IC50 with the Cheng-Prusoff equation); 131 µM in test [2] (4-hr incubation, Cheng-Prusoff from IC50, FRET1 KM 10 uM, substrate 5 uM); 40.9 µM in test [3] (Cheng-Prusoff, KM 10 uM, substrate concentration 5 uM, read-out: Ki values, Mean); 41 ± 6.4 µM in test [3] (substrate FRET1 5 μM, Ki from IC50 with the Cheng-Prusoff equation, read-out: Ki FRET1). Besides, the remaining activity at 0.12207 µM in test [2] (4 h, 4-hr incubation, Cmpd 0.12207 uM, relative to DMSO-only controls, individual runs, read-out: Percent Activity (normalized initial velocity of FRET1 hydrolysis)) was 90.2%. Moreover, the remaining activity at 0.488281 µM in test [2] (4 h, 4-hr incubation, Cmpd 0.488281 uM, relative to DMSO-only controls, individual runs, read-out: Percent Activity (normalized initial velocity of FRET1 hydrolysis)) was found to be 82.8%. Moreover, the remaining activity at 1.95312 µM in test [2] (4 h, 4-hr incubation, Cmpd 1.95312 uM, relative to DMSO-only controls, individual runs, read-out: Percent Activity (normalized initial velocity of FRET1 hydrolysis)) was 80.5%. For the same substance, the remaining activity at 7.8125 µM in test [2] (4 h, 4-hr incubation, Cmpd 7.8125 uM, relative to DMSO-only controls, individual runs, read-out: Percent Activity (normalized initial velocity of FRET1 hydrolysis)) came to 70.1%. For the same substance, the remaining activity at 31.25 µM in test [2] (4 h, 4-hr incubation, Cmpd 31.25 uM, relative to DMSO-only controls, individual runs, read-out: Percent Activity (normalized initial velocity of FRET1 hydrolysis)) is 51.8%. Besides, the remaining activity at 125 µM in test [2] (4 h, 4-hr incubation, Cmpd 125 uM, relative to DMSO-only controls, individual runs, read-out: Percent Activity (normalized initial velocity of FRET1 hydrolysis)) was determined as 36.3%. Also, the remaining activity at 500 µM in test [2] (4 h, 4-hr incubation, Cmpd 500 uM, relative to DMSO-only controls, individual runs, read-out: Percent Activity (normalized initial velocity of FRET1 hydrolysis)) stood at 9.02%; in test [3] (judged as IC50 <100 uM?, individual replicates, read-out: Percent activity at 500 uM, Replicate 1-4) it was 32.1%. Further, in test [3] (initial test at 500 uM), the “IC50 <500 uM?” value is given as “YES”.
